Measured values as given in patent publication US9833497B2, “Human originated EGF domain proteins and use of the same” (CHENGDU SOURCEBIO LIMITED-LIABILITY COMPANY, priority 2013, dated 2017).

Assays:
Assay type in all cases: cell-based
[1] = system: Proteus vulgaris; assay: MIC against Gram-negative bacteria: Proteus vulgaris; conditions: 5×10^5 CFU/mL
Outline: (§1)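 MIC, the lowest recombinant protein concentration giving no bacterial growth, found by two-fold serial dilution of human EGF-domain proteins in triplicate. Inoculum 5×10^5 CFU/mL in LB from cultures at McFarland 0.5; plates incubated at 37° C, 175 rpm shaking.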

[2] = system: E. coli DH5α; assay: Antibacterial activity: MIC and growth curve against E. coli DH5α in 96-well plate; conditions: minimal inhibitory concentration against E. coli DH5α; 96-well plate, 5×10^5 CFU/mL, 37° C., judged after 8 h
Outline: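 Log-phase bacteria (OD600 ~0.5) resuspended in LB at 5×10^5 CFU/mL, exposed to recombinant protein at 50, 25, 12.5 μg/mL final in triplicate, 37 °C shaking at 175 rpm. OD600 read every 30 min; MIC is lowest concentration showing no growth.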

[3] = system: Serratia marcescens; assay: MIC against Gram-negative bacteria: Serratia marcescens; conditions: 5×10^5 CFU/mL
Outline: as §1

[4] = system: Proteus mirabilis; assay: MIC against Gram-negative bacteria: Proteus mirabilis; conditions: 5×10^5 CFU/mL
Outline: as §1

[5] = system: Enterobacter cloacae; assay: MIC against Gram-negative bacteria: Enterobacter cloacae; conditions: 5×10^5 CFU/mL
Outline: as §1

[6] = system: Aeromonas hydrophila; assay: MIC against Gram-negative bacteria: Aeromonas hydrophila; conditions: 5×10^5 CFU/mL
Outline: as §1

[7] = system: Moraxella catarrhalis; assay: MIC against Gram-negative bacteria: Moraxella catarrhalis; conditions: 5×10^5 CFU/mL
Outline: as §1

[8] = system: Klebsiella pneumonia; assay: MIC against Gram-negative bacteria: Klebsiella pneumonia; conditions: 5×10^5 CFU/mL
Outline: as §1

[9] = system: E. coli BL21; assay: MIC against Gram-negative bacteria: E. coli BL21; conditions: 5×10^5 CFU/mL
Outline: as §1

[10] = system: Citrobacter diversus; assay: MIC against Gram-negative bacteria: Citrobacter diversus; conditions: 5×10^5 CFU/mL
Outline: as §1

[11] = system: Pseudomonas aeruginosa; assay: MIC against Gram-negative bacteria: Pseudomonas aeruginosa; conditions: 5×10^5 CFU/mL
Outline: as §1

[12] = 10 h cultivation at 37° C., two-fold serial dilution
[13] = Proteus vulgaris, 10 h cultivation at 37° C.
[14] = Serratia marcescens, 10 h cultivation at 37° C.
[15] = Proteus mirabilis, 10 h cultivation at 37° C.
[16] = Enterobacter cloacae, 10 h cultivation at 37° C.
[17] = Aeromonas hydrophila, 10 h cultivation at 37° C.
[18] = Moraxella catarrhalis, 10 h cultivation at 37° C.
[19] = Klebsiella pneumonia, 10 h cultivation at 37° C.
[20] = Citrobacter diversus, 10 h cultivation at 37° C.
[21] = Pseudomonas aeruginosa, 10 h cultivation at 37° C.

PRT1110 (RREQCRPLPCVHGGSCVDLWTHFRCDCARPHRGPTCA; listed as Homo sapiens)
25 µg/mL: MIC [2] | MIC S. marcescens [3, 12] | MIC P. mirabilis [4, 12] | MIC P. aeruginosa [11, 12]
12.5 µg/mL: MIC A. hydrophila [6, 12] | MIC M. catarrhalis [7, 12] | MIC K. pneumonia [8, 12]
50 µg/mL: MIC P. vulgaris [1, 12] | MIC E. cloacae [5, 12] | MIC E. coli BL21 [9, 12] | MIC C. diversus [10, 12]

PRT141 (DPCENNPCLHGGTCNANGTMYGCSCDQGFAGENCE; listed as Homo sapiens)
50 µg/mL: MIC (μg/mL) S. marcescens ([3]; Serratia marcescens, 96-well plate, 37° C., 10 h) | MIC (μg/mL) P. mirabilis ([4]; Proteus mirabilis, 96-well plate, 37° C., 10 h) | MIC (μg/mL) C. diversus ([10]; Citrobacter diversus, 96-well plate, 37° C., 10 h)
25 µg/mL: MIC (μg/mL) A. hydrophila ([6]; Aeromonas hydrophila, 96-well plate, 37° C., 10 h) | MIC (μg/mL) K. pneumonia ([8]; Klebsiella pneumonia, 96-well plate, 37° C., 10 h) | MIC (μg/mL) E. coli BL21 ([9]; 96-well plate, 37° C., 10 h)
12.5 µg/mL: MIC (μg/mL) P. vulgaris ([1]; Proteus vulgaris, 96-well plate, 37° C., 10 h) | MIC [2] | MIC (μg/mL) E. cloacae ([5]; Enterobacter cloacae, 96-well plate, 37° C., 10 h) | MIC (μg/mL) M. catarrhalis ([7]; Moraxella catarrhalis, 96-well plate, 37° C., 10 h) | MIC (μg/mL) P. aeruginosa ([11]; Pseudomonas aeruginosa, 96-well plate, 37° C., 10 h)

PRT1465 (CECDSLGTLPGTICDPISGQCLCVPNRQGRRCNQCQPGFYISPGNATGCLP; listed as Homo sapiens)
50 µg/mL: MIC against P. mirabilis [4, 15] | MIC against A. hydrophila [6, 17] | MIC against P. aeruginosa [11, 21]
25 µg/mL: MIC against P. vulgaris [1, 13] | MIC against E. cloacae [5, 16] | MIC against E. coli BL21 ([9]; 10 h cultivation at 37° C.) | MIC against C. diversus [10, 20]
12.5 µg/mL: MIC [2] | MIC against S. marcescens [3, 14] | MIC against M. catarrhalis [7, 18] | MIC against K. pneumonia [8, 19]

PRT839 (DVDECRLGLARCHPRATCLNTPLSYECHCQRGYQGDGISHCN; listed as Homo sapiens)
12.5 µg/mL: MIC (μg/mL) P. vulgaris ([1]; P. vulgaris, 10 h cultivation at 37° C.) | MIC [2] | MIC (μg/mL) E. cloacae ([5]; E. cloacae, 10 h cultivation at 37° C.) | MIC (μg/mL) A. hydrophila ([6]; A. hydrophila, 10 h cultivation at 37° C.) | MIC (μg/mL) K. pneumonia ([8]; K. pneumonia, 10 h cultivation at 37° C.) | MIC (μg/mL) P. aeruginosa ([11]; P. aeruginosa, 10 h cultivation at 37° C.)
25 µg/mL: MIC (μg/mL) P. mirabilis ([4]; P. mirabilis, 10 h cultivation at 37° C.) | MIC (μg/mL) E. coli BL21 ([9]; 10 h cultivation at 37° C.) | MIC (μg/mL) C. diversus ([10]; C. diversus, 10 h cultivation at 37° C.)
50 µg/mL: MIC (μg/mL) S. marcescens ([3]; S. marcescens, 10 h cultivation at 37° C.) | MIC (μg/mL) M. catarrhalis ([7]; M. catarrhalis, 10 h cultivation at 37° C.)

PRT609 (CHCSPVGSLSTQCDSYGRCSCKPGVMGDKCDRCQPGFHSLTEAGCRP; listed as Homo sapiens)
12.5 µg/mL: MIC S. marcescens ([3]; 96-well plate, 37° C., 10 h) | MIC C. diversus ([10]; 96-well plate, 37° C., 10 h) | MIC P. aeruginosa ([11]; 96-well plate, 37° C., 10 h)
50 µg/mL: MIC [2] | MIC P. mirabilis ([4]; 96-well plate, 37° C., 10 h) | MIC E. cloacae ([5]; 96-well plate, 37° C., 10 h)
25 µg/mL: MIC P. vulgaris ([1]; 96-well plate, 37° C., 10 h) | MIC A. hydrophila ([6]; 96-well plate, 37° C., 10 h) | MIC M. catarrhalis ([7]; 96-well plate, 37° C., 10 h) | MIC K. pneumonia ([8]; 96-well plate, 37° C., 10 h) | MIC E. coli BL21 ([9]; 96-well plate, 37° C., 10 h)

PRT1413 (PTNQCIDVACSNHGTCITGTCICNPGYKGESCE; listed as Homo sapiens)
50 µg/mL: MIC against P. mirabilis [4, 15] | MIC against C. diversus [10, 20] | MIC against P. aeruginosa [11, 21]
12.5 µg/mL: MIC [2] | MIC against S. marcescens [3, 14] | MIC against E. cloacae [5, 16] | MIC against M. catarrhalis [7, 18]
25 µg/mL: MIC against P. vulgaris [1, 13] | MIC against A. hydrophila [6, 17] | MIC against K. pneumonia [8, 19] | MIC against E. coli BL21 ([9]; 10 h cultivation at 37° C.)
